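Method: 48-hour compound exposure of cells in 96-well plates, five concentrations, linear interpolation of endpoints. GI50 = concentration required for 50% inhibition of growth.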 Active and inactive are the calls of the source. Rule as the data show it: active = GI50 up to about 1.1 µM and inactive = higher.
How the values were obtained:
Experiment in all cases: NCI-60 cell line screen, 48 h
NCI/ADR-RES = system: NCI/ADR-RES
NCI-H460 = system: NCI-H460
DU-145 = system: DU-145
OVCAR-8 = system: OVCAR-8
KM12 = system: KM12
MOLT-4 = system: MOLT-4
Hs-578T = system: Hs-578T
M14 = system: M14
OVCAR-4 = system: OVCAR-4
SF-295 = system: SF-295
SN12C = system: SN12C
HCT-15 = system: HCT-15
HOP-92 = system: HOP-92
SK-MEL-5 = system: SK-MEL-5
ACHN = system: ACHN
T47D = system: T47D
A549 = system: A549
IGROV-1 = system: IGROV-1
UO-31 = system: UO-31
LOX IMVI = system: LOX IMVI

Compound | GI50 (NCI/ADR-RES) | GI50 (NCI-H460) | GI50 (DU-145) | GI50 (OVCAR-8) | GI50 (KM12) | GI50 (MOLT-4) | GI50 (Hs-578T) | GI50 (M14) | GI50 (OVCAR-4) | GI50 (SF-295) | GI50 (SN12C) | GI50 (HCT-15) | GI50 (HOP-92) | GI50 (SK-MEL-5) | GI50 (ACHN) | GI50 (T47D) | GI50 (A549) | GI50 (IGROV-1) | GI50 (UO-31) | GI50 (LOX IMVI)
O=C1C(Cl)=C(Sc2nnc3c4ccccc4c4ccccc4c3n2)C(=O)c2ccccc21 | 25.5 µM (inactive) | 17.8 µM (inactive) | 8.81 µM (inactive) | 8.47 µM (inactive) | 14.8 µM (inactive) | 13.9 µM (inactive) | 34.3 µM (inactive) | 15.2 µM (inactive) | 14.7 µM (inactive) | 10.8 µM (inactive) | 16.6 µM (inactive) | 19 µM | 16.9 µM (inactive) | 7.8 µM (inactive) | 15.7 µM (inactive) | 6.24 µM (inactive) | 24.6 µM (inactive) | 1.08 µM (active) | 14.1 µM (inactive) | 4.57 µM (inactive)
CCc1c(O)c2c(c(O)c1C(C)=O)C(=O)c1c(cc(O)c(C(=O)O)c1C(=O)O)C2=O | > 100 µM (inactive) | > 100 µM (inactive) | > 100 µM (inactive) | > 100 µM (inactive) | > 100 µM (inactive) | > 100 µM (inactive) | > 100 µM (inactive) | > 100 µM (inactive) | > 100 µM (inactive) | > 100 µM (inactive) | > 100 µM (inactive) | > 100 µM | > 100 µM (inactive) | > 100 µM (inactive) | > 100 µM (inactive) | > 100 µM (inactive) | > 100 µM (inactive) | > 100 µM (inactive) | > 100 µM (inactive) | > 100 µM (inactive)
CC(C)C(=O)/C=C/c1c(Cl)cccc1Cl | 3.04 µM (inactive) | 2.18 µM (inactive) | 3.51 µM (inactive) | 3.86 µM (inactive) | 2.85 µM (inactive) | 4.63 µM (inactive) | 2.35 µM (inactive) | 2.61 µM (inactive) | 3.4 µM (inactive) | 11.6 µM (inactive) | 2.71 µM (inactive) | 4.55 µM | 12.9 µM (inactive) | 4.95 µM (inactive) | 4.74 µM (inactive) | 2.95 µM (inactive) | 4.15 µM (inactive) | 3.75 µM (inactive) | 4.3 µM (inactive) | 2.47 µM (inactive)
CSc1nc2c(c(N3CCOCC3)n1)C(O)n1c(nc3ccccc31)S2 (stereo not given) | 22.6 µM (inactive) | 13.6 µM (inactive) | > 100 µM (inactive) | 31.1 µM (inactive) | 53.6 µM (inactive) | > 100 µM (inactive) | 23.7 µM (inactive) | > 100 µM (inactive) | 41 µM (inactive) | 33.5 µM (inactive) | 77.8 µM (inactive) | 63 µM | 72.3 µM (inactive) | 3.23 µM (inactive) | 36.6 µM (inactive) | 25.9 µM (inactive) | 29.6 µM (inactive) | > 100 µM (inactive) | 3.93 µM (inactive) | > 100 µM (inactive)
CCOC(=O)Oc1cc2ccsc2c2c1c1ccccc1n2C(=O)OCC | 38 µM (inactive) | 30.9 µM (inactive) | 32.8 µM (inactive) | 87.7 µM (inactive) | 49.9 µM (inactive) | > 100 µM (inactive) | 36.4 µM (inactive) | 31.3 µM (inactive) | 40.3 µM (inactive) | 36.1 µM (inactive) | 37.8 µM (inactive) | 26.2 µM | 22 µM (inactive) | 63.7 µM (inactive) | 28.3 µM (inactive) | 28.6 µM (inactive) | 48.9 µM (inactive) | > 100 µM (inactive) | 24.2 µM (inactive) | > 100 µM (inactive)
COc1ccc2c(c1OC)C(=O)O[C@@H]2[C@H]1c2c(cc3c(c2OC)OCO3)CCN1C [NOSCAPINE] | 43.8 µM (inactive) | 39.9 µM (inactive) | > 100 µM (inactive) | 63.5 µM (inactive) | 45.8 µM (inactive) | 23.5 µM (inactive) | 21.1 µM (inactive) | 39.2 µM (inactive) | > 100 µM (inactive) | 30.3 µM (inactive) | > 100 µM (inactive) | 43.4 µM | > 100 µM (inactive) | 48.3 µM (inactive) | 62.5 µM (inactive) | > 100 µM (inactive) | 72.9 µM (inactive) | 62.7 µM (inactive) | 69 µM (inactive) | 37.2 µM (inactive)

Source: ChEMBL document CHEMBL1201862, “PubChem BioAssay data set” (2004)
